# Results as given in patent publication US5026726A, “Gossylic iminolactones and gossylic lactones and their anti-viral activities” (The University of New Mexico, priority 1989, dated 1991).
# Legend:
# [1] = literature; cited from earlier work
# HIV virus = conditions: after prolonged exposure, literature; cited from earlier work
# [2] = tested on: reverse transcriptase (RT); conditions: literature; cited from earlier work
# [3] = tested on: herpes simplex virus type II; conditions: literature; cited from earlier work
# Plasmodium falcicarum = conditions: literature; cited from earlier work
# [4] = tested on: billirubin binding site of the protein albumin; conditions: literature; cited from earlier work
# herpes simplex viruses = conditions: literature; cited from earlier work
# MT4 cells = assay: Cytotoxicity to MT4 cells (trypan blue exclusion); assay type: cell-based; conditions: for toxicity to the host cell: MT4 cells
# Procedure: (§1) The above % IFA positive cells were determined 6 days after addition of HIV-1 virus. Cell viability is % viable cells relative to mock-treated cells or controls. FIGS. 1-A through D show one of many representative set of data.
# (§2) The infected cells were then resuspended in a complete medium (RPMI 1640 with 20% FBS, L-glutamine, 2 mM, penicillin, 100 units/ml, and streptomycin, 100 ug/ml). Aliquots were added to 24-well tissue culture plates containing varying concentrations of Compounds I, II, III and IV in complete media. The final cell concentration was 1.5×10^5 cells/ml.
# (§3) Positive control wells received no drug. Negative control wells received mock-treated MT4 cells. Cells were incubated at 37° C. in 5% CO2. Media was changed after 3 days with fresh complete media containing the appropriate drug.
# (§4) After 6 days, the viability of the MT4 cells, control or infected, was determined by trypan blue exclusion, which is a standard procedure to determine cell viability.
# parainfluenza type 3 = conditions: literature; cited from earlier work
# [5] = tested on: HIV-1 virus (HIV-infected MT4 cells); assay: Anti-HIV-1 activity in infected MT4 cells (% IFA positive cells, 6 days); assay type: cell-based, human immunodeficiency virus (HIV-1), LAV-A isolate
# Procedure: as §1
# An LAV-A isolate of human immunodeficiency virus (HIV-1) was used in this study. LAV-A was originally isolated by Dr. L. Montagnier, Pasteur Institute, Paris, and was obtained from Dr. T. Folks, NIAID.
# MT4 cells, 10^7 cells/ml, were infected for 1 hour at 4° C., with stock HIV-1 virus, 0.5 ml stock/10^7 cells.
# as §2, §3
# The percent HIV-1 viral infection was determined by an immunofluorescence assay (IFA) using heat-inactivated, pooled human anti-sera from HIV-positive patients as the first antibody and goat anti-human IgG conjugated with FITC as the second antibody. This is a standard immunoassay known in the art.
# Slides were counterstained with Evans blue to obtain total cell counts from the same slides as is known in the art. Uninfected cells were consistently negative for fluorescence.
# Trypanosoma cruzi = conditions: literature; cited from earlier work
# [6] = Cytotoxicity to MT4 cells (trypan blue exclusion); assay type: cell-based; conditions: human, mt4 cells; for MCC at 144 h: read-out: concentration at which toxicity to the host cell was shown
# Procedure: as §1, §2, §3, §4
compound,measurement,setting,value
"Cc1cn([C@H]2C[C@H](N=[N+]=[N-])[C@@H](CO)O2)c(=O)[nH]c1=O [AZT, 3'-azido-2',3'-dideoxythymidine]",toxicity limiting use in HIV-infected patients,[1],"hematologic toxicity limits, and in some cases precludes, the use"
same,development of HIV resistance,HIV virus,may develop resistance
same,inhibition of reverse transcriptase,[2],inhibitor of the enzyme reverse transcriptase
"Cc1cc2c(C(C)C)c(O)c(O)c(C=O)c2c(O)c1-c1c(C)cc2c(C(C)C)c(O)c(O)c(C=O)c2c1O [Compound I, gossypol]",antiviral activity against herpes simplex virus type II,[3],exhibit antiviral activities
same,growth of Plasmodium falcicarum,Plasmodium falcicarum,inhibited
same,binding to the bilirubin binding site of albumin,[4],bind tightly
same,antiviral properties: inactivation of herpes simplex viruses,herpes simplex viruses,capable of inactivating
same,toxicity to the host cell,MT4 cells; 1 uM,significant toxicity to the host cell
same,antiviral properties: inactivation of parainfluenza type 3,parainfluenza type 3,capable of inactivating
same,inhibition of virus replication,"[5]; 1 uM, 6 days",approximately 50%
same,growth of Trypanosoma cruzi,Trypanosoma cruzi,inhibited
"Cc1cc2c(C(C)C)c(O)c(O)c3c2c(c1-c1c(C)cc2c(C(C)C)c(O)c(O)c4c2c1OC4=O)OC3=O [Compound IV, gossylic lactone]",toxicity to the MT4 cell,MT4 cells; 250 uM,pronounced toxicity
same,antiviral activity,[5]; below 250 uM,very little antiviral activity
"CC(=O)Oc1c(-c2c(C)cc3c(C(C)C)c(O)c(O)c(C#N)c3c2OC(C)=O)c(C)cc2c(C(C)C)c(O)c(O)c(C#N)c12 [Compound II, Gossylic nitrile-1,1'-diacetate]",MCC at 144 h,[6],250 µM
same,inhibition at 50 µM,"[5]; Human immunodeficiency virus 1, 144 h, 50 uM, 6 days, read-out: inhibition of virus replication",~50%
"Cc1cc2c(C(C)C)c(O)c(O)c3c2c(c1-c1c(C)cc2c(C(C)C)c(O)c(O)c4c2c1OC4=N)OC3=N [Compound III, gossylic iminolactone]",toxicity to the host cell,MT4 cells; until the drug concentration reached 50 uM,no toxicity to the host cell
same,CC50 at 144 h,[6],25 to 50 µM
same,MCC at 144 h,[6],50 µM
same,inhibition at 1 µM,"[5]; Human immunodeficiency virus 1, 144 h, 1 uM, 6 days, read-out: inhibition of virus replication",~50%
same,EC50,"[5]; Human immunodeficiency virus 1, 144 h, read-out: ED50 (the source's name)",1 µM
